The nature of assay [1]: Inhibitory activity against the wheat germ DNA topoisomerase I.
A short description of assay [2]: Inhibitory activity against the calf thymus DNA topoisomerase I.
A short description of assay [3]: Inhibitory activity against the wheat germ DNA topoisomerase I. This is another data set of the same source.

For orientation: IC50 means the concentration at which inhibition is half-maximal. High values mean lower potency, low ones higher potency. Take `c1coc(-c2ccnc(-c3cccs3)c2)c1` [4-Furan-2-yl-2-thiophen-2-yl-pyridine]: 400 µM corresponded to half-maximal inhibition in assay [1] (IC50).

`c1coc(-c2cc(-c3cccs3)nc(-c3cccs3)c2)c1` [4-Furan-2-yl-2,6-di-thiophen-2-yl-pyridine] had an IC50 in assay [1] of 50 µM.

As to `C(=C\c1ccco1)/c1cc(-c2ccco2)cc(-c2cccs2)n1` [4-Furan-2-yl-2-((E)-2-furan-2-yl-vinyl)-6-thiophen-2-yl-pyridine], the IC50 was 200 µM in assay [2] and less than 10 µM in assay [3].

(Values after BindingDB's records for doi:10.1016/j.bmcl.2003.11.084 (Liaoning Normal University, 2004).)
